Reference: PubChem BioAssay AID1949 (Southern Research Institute, 2009)
Values after ≈ are worked out from the molar mass of the structure shown. Inconclusive results are not listed. Active and inactive are the calls of the source. How the calls were made is not given here.

System: M. tuberculosis H37Rv growth inhibition
Test: Mycobacterium tuberculosis H37Rv growth inhibition, cell based, confirmatory dose response (AID 1949);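 further: bacteria grown 7 days with compound before Alamar blue readout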

Compound	IC50
CC1CCCN(CCC(=O)c2ccc(Br)cc2)C1 (stereo not drawn)	2.8 µg/mL (≈ 9.03 µM)
CCOC(=O)c1cccc(NC(=O)C(Cl)Cl)c1	3.07 µg/mL (≈ 11.1 µM)
COc1ccc(NC(=O)c2c(NC(=O)c3ccc([N+](=O)[O-])o3)sc3c2CCC3)cc1	0.26 µg/mL (≈ 0.608 µM)
CSc1nsc(SCC(=O)N2CCc3ccccc32)n1	12 µg/mL (≈ 37 µM)
CC(C)C(=O)N1CCN(c2ccc(NC(=O)c3ccc([N+](=O)[O-])o3)cc2)CC1	0.21 µg/mL (≈ 0.543 µM)
O=C(NC(Nc1cccc([N+](=O)[O-])c1)C(Cl)(Cl)Cl)c1cccc(I)c1 (stereo not drawn)	11.7 µg/mL (≈ 22.8 µM)
CC(C)C(=O)Nc1ccc(C(=O)Oc2ccccc2)c(O)c1	< 0.1 µg/mL
O=C(Oc1c(Cl)cc(Cl)c2cccnc12)c1cccc([N+](=O)[O-])c1	6.13 µg/mL (≈ 16.9 µM)
Cc1ccc(-c2nc3ccc(Br)cc3c(=O)o2)cc1C	> 50 µg/mL (inactive)
O=C(Oc1ccc(Cl)cc1)c1ccc(S(=O)(=O)c2ccc(Cl)cc2)cc1	1.02 µg/mL (≈ 2.5 µM)
Cc1nc2c(o1)C1(C(=O)N2C)C(C#N)=C(N)N(c2ccccc2)c2ccccc21 (stereo not drawn)	6.25 µg/mL (≈ 16.3 µM)
CCOc1ccccc1NC(=O)CSc1nc2ccc(NC(=O)c3ccccc3Cl)cc2s1	1.25 µg/mL (≈ 2.51 µM)
Cc1ccc(-c2cc(C(=O)N3CCCc4ccccc43)no2)cc1	9.33 µg/mL (≈ 29.3 µM)
COc1ccc(-c2cc(-c3ccccc3)nc(-n3nc(C)cc3C)n2)cc1	4.22 µg/mL (≈ 11.8 µM)
COc1ccc(-c2csc(Nc3ccc(C)cn3)n2)cc1	7.18 µg/mL (≈ 24.1 µM)
O=[N+]([O-])c1ccc(-c2[nH]c(-c3cccs3)nc2-c2ccccc2)cc1	2.86 µg/mL (≈ 8.23 µM)
Cc1ccc(C(=O)Nc2ccc(N3CCCC3)c(Cl)c2)c(C)c1	6.72 µg/mL (≈ 20.4 µM)
COc1ccc(-c2csc3ncn(C(C)C(=O)OC4CCCCC4)c(=O)c23)cc1 (stereo not drawn)	10.9 µg/mL (≈ 26.5 µM)
COc1ccc(Nc2cc(C)nc3c2ccc2ccccc23)cc1	1.62 µg/mL (≈ 5.15 µM)
CC(C)OC(=O)c1c2c(n3ccccc13)C(=O)c1ccccc1C2=O	11.4 µg/mL (≈ 34.2 µM)

Compound	IC50
CCCc1ccc(OCC(=O)Nc2ccc(F)cc2)cc1	0.85 µg/mL (≈ 2.96 µM)
COc1ccc(OC(C)C(=O)Nc2ccc(Cl)cc2C)cc1 (stereo not drawn)	0.62 µg/mL (≈ 1.94 µM)
N#Cc1cc2c(cc1C#N)OC(c1ccccc1)=NN2	16.4 µg/mL (≈ 63.1 µM)
Cc1ccn2c(-c3csc(Nc4ccccn4)n3)c(C)nc2c1	0.24 µg/mL (≈ 0.747 µM)
CCN(CC)CC(O)Cn1c(C)c(-c2ccccc2)c2cc([N+](=O)[O-])ccc21 (stereo not drawn)	29.4 µg/mL (≈ 77 µM)
Cc1ccc(C(=O)NC(=S)Nc2ccc(S(=O)(=O)NC(C)C)cc2)cc1Br	3.75 µg/mL (≈ 7.97 µM)
CC1CCc2sc3ncnc(NCCc4ccccc4)c3c2C1 (stereo not drawn)	1.85 µg/mL (≈ 5.72 µM)
Oc1ccc(CSc2ccccc2)c2cccnc12	0.6 µg/mL (≈ 2.24 µM)
Cc1ccc(NC(=O)CC2COc3ccccc3O2)cc1Cl (stereo not drawn)	1.56 µg/mL (≈ 4.91 µM)
Clc1cc(Br)ccc1OCCCCn1ccnc1	1.11 µg/mL (≈ 3.37 µM)
C=CCN(CC=C)C(=S)NC(=O)c1ccc(OC)cc1	> 50 µg/mL (inactive)
O=C(NCCc1c[nH]c2ccccc12)C(Cl)Cl	2.63 µg/mL (≈ 9.7 µM)
COc1ccc(Cl)cc1CN1CCN(c2ncnc3scc(-c4ccccc4)c23)CC1	4.15 µg/mL (≈ 9.2 µM)
Cc1ccc(C(=O)Nc2nc(C(C)(C)C)cs2)cc1[N+](=O)[O-]	27.2 µg/mL (≈ 85.3 µM)
Cc1ccc(Cl)cc1N1CCN(C(=O)C2CCN(C(=O)c3ccc(C(C)(C)C)cc3)CC2)CC1	3.38 µg/mL (≈ 7.01 µM)
Fc1ccc(Nc2nc(-c3ccccn3)cs2)cc1	0.28 µg/mL (≈ 1.03 µM)
O=C(CSc1ccc(Cl)cc1)Nc1ccc(Cl)c(C(F)(F)F)c1	3.18 µg/mL (≈ 8.36 µM)
N#Cc1ccc(Sc2nc3ccccc3o2)c([N+](=O)[O-])c1	> 50 µg/mL (inactive)
O=C(Oc1ccccc1)c1ccc(COC(=O)c2cc3ccccc3oc2=O)cc1	> 50 µg/mL (inactive)
CCOC(=O)c1cnc2c(C)c(C)ccc2c1NCc1ccco1	3.91 µg/mL (≈ 12.1 µM)

Compound	IC50
O=C(CCSc1nnc(-c2ccccc2)o1)Nc1ccc(F)cc1	5.2 µg/mL (≈ 15.1 µM)
CCOc1ccc(C(=O)Nc2ccc(N3CCN(C(=O)c4cccs4)CC3)c(Cl)c2)cc1Br	0.53 µg/mL (≈ 0.966 µM)
CCC(=O)NC(=S)Nc1ccc(C(C)C)cc1	< 0.1 µg/mL
Oc1cccc(Nc2nc(NCc3ccccc3)c3ccccc3n2)c1	0.98 µg/mL (≈ 2.86 µM)
Cc1ccc(Cl)cc1N1CCN(CC(O)COC2CC(C)CC(C)(C)C2)CC1 (stereo not drawn)	7.82 µg/mL (≈ 19.1 µM)
CC(=O)c1ccc(OC(=O)c2sc3ccccc3c2Cl)cc1	> 50 µg/mL (inactive)
COc1cc(CNc2ccc(F)c(Cl)c2)ccc1OCC(=O)NC1CCCCC1	5.53 µg/mL (≈ 13.1 µM)
c1ccc(CNc2cc(-n3cccn3)nc(-c3ccccc3)n2)cc1	> 50 µg/mL (inactive)
O=C(Nc1ccc(Cl)cc1)NC1CC2CCC1C2 (stereo not drawn)	0.72 µg/mL (≈ 2.72 µM)
Cc1cc(C)cc(C(=O)Nc2ccc(N3CCN(C(=O)c4cccs4)CC3)c(Cl)c2)c1	15.5 µg/mL (≈ 34.2 µM)
Cn1c2c(c(=O)n(C)c1=O)C(C(F)(F)F)(C(F)(F)F)N=C(c1cccc([N+](=O)[O-])c1)N2	> 50 µg/mL (inactive)
c1ccc(CCN(Cc2ccccc2)C2CCN(Cc3c[nH]c4ccccc34)CC2)cc1	2.91 µg/mL (≈ 6.87 µM)
Cc1ccc(NC(=O)Nc2ccc([N+](=O)[O-])cc2)cc1F	13.2 µg/mL (≈ 45.6 µM)
N#Cc1ccc(NC(=O)CSc2ccc(Br)cc2)cc1	3.04 µg/mL (≈ 8.75 µM)
FC(F)(F)c1cccc(NC(=S)Nc2ccc(Cl)cc2Cl)c1	12.1 µg/mL (≈ 33.1 µM)
Cc1ccc(-c2nc(C#N)c(NCCCn3ccnc3)o2)cc1	> 50 µg/mL (inactive)
CCN(CC)CCSc1nc2sc3c(c2c(=O)n1-c1ccc(OC)cc1)CCCC3	> 50 µg/mL (inactive)
CCc1ccccc1-n1c(=O)oc2ccc(Cl)cc2c1=O	1.37 µg/mL (≈ 4.54 µM)
